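All cell lines were grown in 96-well plates and treated with compound for 48 hours. TGI: concentration producing complete growth inhibition.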
Key:
Test in all cases: DTP human tumour cell line panel, 48 h
SW-620 colon = tested on: SW-620 colon
MDA-MB-435 = tested on: MDA-MB-435
A549 NSCLC = tested on: A549 NSCLC
COLO 205 colon = tested on: COLO 205 colon
SNB-19 CNS = tested on: SNB-19 CNS
SF-295 CNS = tested on: SF-295 CNS
UACC-257 melanoma = tested on: UACC-257 melanoma
OVCAR-3 ovarian = tested on: OVCAR-3 ovarian
ACHN renal = tested on: ACHN renal
K-562 leukemia = tested on: K-562 leukemia
PC-3 prostate = tested on: PC-3 prostate
HCC-2998 colon = tested on: HCC-2998 colon
KM12 colon = tested on: KM12 colon
SF-539 CNS = tested on: SF-539 CNS
786-0 renal = tested on: 786-0 renal
NCI-H23 lung = tested on: NCI-H23 lung
CAKI-1 renal = tested on: CAKI-1 renal
LOX IMVI melanoma = tested on: LOX IMVI melanoma
EKVX NSCLC = tested on: EKVX NSCLC
T-47D breast = tested on: T-47D breast
TK-10 renal = tested on: TK-10 renal
HCT-15 colon = tested on: HCT-15 colon
MDA-N = tested on: MDA-N
BT-549 breast = tested on: BT-549 breast
OVCAR-4 ovarian = tested on: OVCAR-4 ovarian
HS 578T breast = tested on: HS 578T breast
OVCAR-5 ovarian = tested on: OVCAR-5 ovarian
SN12C renal = tested on: SN12C renal
NCI-H226 lung = tested on: NCI-H226 lung
HOP-92 NSCLC = tested on: HOP-92 NSCLC
HCT-116 colon = tested on: HCT-116 colon
MOLT-4 leukemia = tested on: MOLT-4 leukemia
MDA-MB-231 breast = tested on: MDA-MB-231 breast
OVCAR-8 ovarian = tested on: OVCAR-8 ovarian
SR leukemia = tested on: SR leukemia
SK-MEL-2 melanoma = tested on: SK-MEL-2 melanoma
UO-31 renal = tested on: UO-31 renal
UACC-62 melanoma = tested on: UACC-62 melanoma
SK-MEL-5 melanoma = tested on: SK-MEL-5 melanoma
NCI/ADR-RES ovarian = tested on: NCI/ADR-RES ovarian
NCI-H460 lung = tested on: NCI-H460 lung
A498 renal = tested on: A498 renal
NCI-H522 lung = tested on: NCI-H522 lung
SK-OV-3 ovarian = tested on: SK-OV-3 ovarian
DU-145 prostate = tested on: DU-145 prostate
MCF7 breast = tested on: MCF7 breast
HT29 colon = tested on: HT29 colon
RPMI-8226 leukemia = tested on: RPMI-8226 leukemia
MALME-3M melanoma = tested on: MALME-3M melanoma
U251 CNS = tested on: U251 CNS
SF-268 CNS = tested on: SF-268 CNS
IGROV1 ovarian = tested on: IGROV1 ovarian
RXF 393 renal = tested on: RXF 393 renal

## O=c1[nH]nc(Cc2ccccc2)n1/N=C/c1ccccc1Cl
SW-620 colon
  TGI: > 100 µM
MDA-MB-435
  TGI: > 100 µM
A549 NSCLC
  TGI: > 100 µM
COLO 205 colon
  TGI: > 100 µM
SNB-19 CNS
  TGI: > 100 µM
SF-295 CNS
  TGI: > 100 µM
UACC-257 melanoma
  TGI: > 100 µM
OVCAR-3 ovarian
  TGI: > 100 µM
ACHN renal
  TGI: > 100 µM
K-562 leukemia
  TGI: > 100 µM
PC-3 prostate
  TGI: > 100 µM
HCC-2998 colon
  TGI: > 100 µM
KM12 colon
  TGI: > 100 µM
SF-539 CNS
  TGI: > 100 µM
786-0 renal
  TGI: > 100 µM
NCI-H23 lung
  TGI: > 100 µM
CAKI-1 renal
  TGI: > 100 µM
LOX IMVI melanoma
  TGI: > 100 µM
EKVX NSCLC
  TGI: > 100 µM
T-47D breast
  TGI: > 100 µM
TK-10 renal
  TGI: > 100 µM
HCT-15 colon
  TGI: > 100 µM
MDA-N
  TGI: > 100 µM
BT-549 breast
  TGI: > 100 µM
OVCAR-4 ovarian
  TGI: > 100 µM
HS 578T breast
  TGI: > 100 µM
OVCAR-5 ovarian
  TGI: > 100 µM
SN12C renal
  TGI: > 100 µM
NCI-H226 lung
  TGI: > 100 µM
HOP-92 NSCLC
  TGI: > 100 µM
HCT-116 colon
  TGI: > 100 µM
MOLT-4 leukemia
  TGI: > 100 µM
MDA-MB-231 breast
  TGI: > 100 µM
OVCAR-8 ovarian
  TGI: > 100 µM
SR leukemia
  TGI: > 100 µM
SK-MEL-2 melanoma
  TGI: > 100 µM
UO-31 renal
  TGI: > 100 µM
UACC-62 melanoma
  TGI: > 100 µM
SK-MEL-5 melanoma
  TGI: > 100 µM
NCI/ADR-RES ovarian
  TGI: > 100 µM
NCI-H460 lung
  TGI: > 100 µM
A498 renal
  TGI: > 100 µM
NCI-H522 lung
  TGI: > 100 µM
SK-OV-3 ovarian
  TGI: > 100 µM
DU-145 prostate
  TGI: > 100 µM
MCF7 breast
  TGI: > 100 µM
HT29 colon
  TGI: > 100 µM
RPMI-8226 leukemia
  TGI: > 100 µM
MALME-3M melanoma
  TGI: > 100 µM
U251 CNS
  TGI: > 100 µM
SF-268 CNS
  TGI: > 100 µM
IGROV1 ovarian
  TGI: > 100 µM
RXF 393 renal
  TGI: 48.5 µM
